According to patent US8063012B2, “Neuroprotective peptide inhibitors of AP-1 signaling and uses therefor” (Phylogica Limited, priority 2006, dated 2011):
Entries after “also recorded” stand apart in the source; their conditions may differ. Non-standard residues stand in square brackets, D forms with d. Residues, ends and D or L forms follow the SMILES beside them. No end group written: not given here.

Columns and labels:
[1] = tested on: primary cortical neuronal cultures; assay: Glutamate excitotoxicity in primary cortical neuronal cultures, neuronal viability by MTS assay; assay type: cell-based, rat; details: for neuroprotection in the glutamate model / neuronal viability following glutamate excitotoxicity: 5 μM extracellular peptide; for neuronal viability following glutamate excitotoxicity: 100 μM glutamate 5 min, MTS 18 h, no insult = 100%
Procedure: Neurons were resuspended in Neurobasal (NB; Invitrogen) containing 2% B27 supplement (B27; Invitrogen). Before seeding, culture vessels comprising either a 96-well plastic plate or 24-well plastic plate with 13 mm glass coverslips (ProSciTech, Australia), were coated with poly-D-lysine (50 μg/mL; 70-150K; Sigma) and incubated overnight at room temperature. […] Neurons were plated to obtain approximately 10,000 viable neurons for each well of a 96-well plate, or 200,000 viable neurons per well of a 24-well plate, on day in vitro (DIV) […]. […] On DIV 4, one third of the culture medium was removed and replaced with fresh NB/2% B27 containing the mitotic inhibitor, cytosine arabinofuranoside (Sigma) at 1 μM concentration. On DIV 8, one half of the culture medium was replaced with NB/2% B27.
(§1) To induce glutamate excitotoxicity in the cortical neuronal cultures (96-well plate format), 50 μl of conditioned media containing 200 μM glutamate was added to culture wells containing 50 μl conditioned media (100 μM final glutamate concentration). Cultures were incubated at 37° C. in a CO2 incubator for 5 minutes, after which time the media was replaced with 100 μl of 50% NB/2% N2 and 50% balance salt solution (NB/N2:BSS).
Untreated and glutamate-treated control samples received media additions with and without glutamate respectively.
(§2) Eighteen hours after glutamate exposure, neuronal cultures were examined by light microscopy for qualitative assessment of neuronal damage. Neuronal viability was quantitatively measured by 3-(4,5,dimethyliazol-2-yl)-5-(3-carboxymethoxy-phenyl)-2-(4-sulfophenyl)-2H-tetrazolium salt (MTS) assay (Promega, Australia). The MTS assay measures the mitochondrial conversion of the tetrazolium salt to a water-soluble brown formazan salt, which is detected spectrophotometrically at 495 nm. MTS absorbance data was converted to reflect proportional cell viability relative to both the untreated and glutamate treated controls. […] All assays were performed with quadruplicate sister neuronal cultures repeated a minimum of four times independently.

[2] = tested on: primary cortical neuronal cultures; assay: Light microscopy assessment of neuronal damage after glutamate exposure; assay type: cell-based, rat; details: for neurons that appeared intact and viable: Sprague-Dawley, rat, 18 hours; for neuronal morphology (cellular rounding, survival) after glutamate exposure: light microscopy, one hour to 18 hours post glutamate exposure
Procedure: Cortical neuronal cultures were established as described by Meloni et al., Neuroscience 108, 17-26, 2001. Briefly, cortical tissue from E18-E19 Sprague-Dawley rats was dissociated in Dulbelcco's Modified Eagle Medium (DMEM; Invitrogen, Australia) supplemented with 1.3 mM L-cysteine, 0.9 mM NaHCO3, 10 units/ml papain (Sigma, USA) and 50 units/ml DNase (Sigma) and washed in cold DMEM/10% (v/v) horse serum. Neurons were resuspended in Neurobasal (NB; Invitrogen) containing 2% B27 supplement (B27; Invitrogen). Before seeding, culture vessels comprising either a 96-well plastic plate or 24-well plastic plate with 13 mm glass coverslips (ProSciTech, Australia), were coated with poly-D-lysine (50 μg/mL; 70-150K; Sigma) and incubated overnight at room temperature. The poly-D-lysine was removed and replaced with NB (containing 2% B27; 4% fetal bovine serum; 1% horse serum; 62.5 μM glutamate; 25 μM 2-mercaptoethanol; and 30 μg/mL streptomycin and 30 μg/mL penicillin). Neurons were plated to obtain approximately 10,000 viable neurons for each well of a 96-well plate, or 200,000 viable neurons per well of a 24-well plate, on day in vitro (DIV) […]. Neuronal cultures were maintained in a CO2 incubator (5% CO2, 95% air balance, 98% humidity) at 37° C. On DIV 4, one third of the culture medium was removed and replaced with fresh NB/2% B27 containing the mitotic inhibitor, cytosine arabinofuranoside (Sigma) at 1 μM concentration. On DIV 8, one half of the culture medium was replaced with NB/2% B27. Cultures were used on DIV 11 or 12, and consisted of >95% neurons.
as §1, §2

`CC[C@@H](C)[C@@H](NC(=O)CNC(=O)[C@@H](CCC(=O)O)NC(=O)[C@@H](CO)NC(=O)[C@@H](CCCNC(=N)N)NC(=O)[C@@H](CCC(=O)O)NC(=O)[C@H](NC(=O)[C@H](N)CCCCN)[C@H](C)CC)C(=O)N[C@H](CO)C(=O)N[C@H](CCC(N)=O)C(=O)N[C@H](CO)C(=O)N[C@H](C)C(=O)N[C@H](CCCNC(=N)N)C(=O)N[C@H](CO)C(=O)N[C@H](CCCNC(=N)N)C(=O)NCC(=O)N[C@H](Cc1ccc(O)cc1)C(=O)N[C@H](CO)C(=O)NCC(=O)N[C@H](CCCNC(=N)N)C(=O)N[C@H](CCCNC(=N)N)C(=O)N[C@H](CCCNC(=N)N)C(=O)N[C@H](CCC(N)=O)C(=O)N[C@H](CCCNC(=N)N)C(=O)N[C@H](CCCNC(=N)N)C(=O)N[C@H](CCCCN)C(=O)N[C@H](CCCCN)C(=O)N[C@H](CCCNC(=N)N)C(=O)NCC(=O)O` [PYC35D Scram-TAT, reference compound] (H-[dK][dI][dE][dR][dS][dE]G[dI][dS][dQ][dS][dA][dR][dS][dR]G[dY][dS]G[dR][dR][dR][dQ][dR][dR][dK][dK][dR]G-OH; N-terminus and C-terminus assumed) was tested, and the “neuroprotection in the glutamate model” value [1] was “failed to provide neuroprotection”, the “neuroprotection in the glutamate model” value ([1]; listed as PYC35L-Scram-TAT) was “reduced neuroprotection” and the “neurons that appeared intact and viable” value [2] was 2-5%. For the same compound, the “neuronal morphology (cellular rounding, survival) after glutamate exposure” value (shortened to “neuronal morphology”) [2] was “displayed cellular rounding”.
With `CC[C@@H](C)[C@@H](NC(=O)CNC(=O)CNC(=O)[C@@H](CCCNC(=N)N)NC(=O)[C@@H](CCCNC(=N)N)NC(=O)[C@H](N)CCCCN)C(=O)N[C@H](CC(C)C)C(=O)N[C@H](CCCNC(=N)N)C(=O)N[C@H](Cc1ccc(O)cc1)C(=O)NCC(=O)N[C@H](CCC(N)=O)C(=O)N1CCC[C@@H]1C(=O)N[C@H](CCC(N)=O)C(=O)N[C@H](CO)C(=O)N[C@H](CCC(N)=O)C(=O)NCC(=O)N[C@H](CCCNC(=N)N)C(=O)N[C@H](CCCNC(=N)N)C(=O)N[C@H](CCCNC(=N)N)C(=O)N[C@H](CCC(N)=O)C(=O)N[C@H](CCCNC(=N)N)C(=O)N[C@H](CCCNC(=N)N)C(=O)N[C@H](CCCCN)C(=O)N[C@H](CCCCN)C(=O)N[C@H](CCCNC(=N)N)C(=O)NCC(=O)O` [PYC36D Scram-TAT, reference compound] (H-[dK][dR][dR]GG[dI][dL][dR][dY]G[dQ][dP][dQ][dS][dQ]G[dR][dR][dR][dQ][dR][dR][dK][dK][dR]G-OH; N-terminus and C-terminus assumed) the “neuroprotection in the glutamate model” value [1] was “failed to provide neuroprotection”, the “neuroprotection in the glutamate model” value ([1]; listed as PYC36L Scram-TAT) was “reduced neuroprotection” and the “neurons that appeared intact and viable” value [2] was 2-5%. For the same compound, the “neuronal morphology” value [2] was “displayed cellular rounding”.
GRKKRRQRRRGLINQSYAYPYIY [PYC19L-TAT] was tested, and the “neuroprotection following glutamate excitotoxicity” value ([1]; 1 μM extracellular concentration) was “neuroprotective trend; also recorded: significant neuroprotection”, the “neuroprotection following glutamate excitotoxicity” value ([1]; 2 μM extracellular concentration) was “neuroprotective trend” and the “neuronal viability following glutamate excitotoxicity” value [1] was 32%. The “neuronal morphology” value [2] was “did not begin to round and survived glutamate excitotoxicity”.
With `CC(C)C[C@@H](NC(=O)[C@@H](Cc1ccccc1)NC(=O)[C@H]1CCCN1C(=O)[C@@H](CCC(N)=O)NC(=O)[C@H](NC(=O)[C@H]1CCCN1C(=O)[C@@H](CCCNC(=N)N)NC(=O)[C@@H](CO)NC(=O)[C@@H](CCC(N)=O)NC(=O)[C@@H](CC(=O)O)NC(=O)[C@H](N)[C@H](C)O)C(C)C)C(=O)N[C@H](CC(N)=O)C(=O)N[C@H](CC(C)C)C(=O)N[C@@H](C(=O)N[C@@H](C(=O)N1CCC[C@@H]1C(=O)N[C@H](CCCNC(=N)N)C(=O)N[C@H](CCCCN)C(=O)N1CCC[C@@H]1C(=O)N[C@H](CCCNC(=N)N)C(=O)N1CCC[C@@H]1C(=O)N1CCC[C@@H]1C(=O)N[C@H](CCCNC(=N)N)C(=O)N[C@H](CCCNC(=N)N)C(=O)N[C@H](CCCNC(=N)N)C(=O)N[C@H](CCC(N)=O)C(=O)N[C@H](CCCNC(=N)N)C(=O)N[C@H](CCCNC(=N)N)C(=O)N[C@H](CCCCN)C(=O)N[C@H](CCCCN)C(=O)N[C@H](CCCNC(=N)N)C(=O)NCC(=O)O)[C@H](C)O)[C@H](C)O` [JNK1-1D-TAT, reference compound] the “neuronal viability following glutamate excitotoxicity” value ([1]; listed as JNKI-1 D-TAT) was 75%, the “neuronal viability following glutamate excitotoxicity” value ([1]; listed as JNKI-1D-TAT) was 89% and the “extracellular concentration providing significant neuroprotection” value ([1]; glutamate excitotoxicity, dose response 0.1-10 μM) was ≥ 2 µM. For the same compound, the “concentrations at which significant neuroprotection is exhibited” value ([1]; glutamate excitotoxicity, p<0.0077) was “micromolar concentrations” and the “neuronal morphology” value [2] was “did not begin to round and survived glutamate excitotoxicity”.
